One series concerns MT-2 cells. The conditions noted are these: 48 hours. The source says: The chemical structures of the compounds are illustrated in FIGS. 1-4. In FIG. 1a, the D- and meso-isomers of L-chicoric acid are identical in this illustrative format. […] The first compound in Table 1, L-chicoric acid, a previously described DCTA, is included for reference. LD5, the 5% lethal dose, is a measure of the toxicity of compound to living, cultured cells. It is the concentration at which cell growth is inhibited by 5%. […] Most simply understood, disintegration is a term used to refer to the reverse of integration.
Cell toxicity and anti-HIV assays were performed as reported above. […] Cells were incubated with drug for 48 hours at 37° C., then harvested for cell viability in a neutral red dye assay as described.

The next series has as its system HIVLAI. Kind of series: Anti-HIV assay, protection from HIV-induced cell death. To be noted: read-out: ED50 (concentration that inhibits HIV-induced cell death by 50%); HIVLAI, MT-2 cells, 72 hr. It is filed as cell-based. As to the method:
Anti-HIV assays were performed as described above. […] The compounds were then two-fold serially diluted in triplicate. To each 50 μl of diluted compound, 50 μl of HIVLAI was added and the virus-drug mixture was incubated for 1 hr at 37° C. […] Final multiplicity of infection (MOI) was 1-5. Cells were harvested to quantitate cytopathic effect using a neutral red dye assay as described.

In the next series the test system is HIV-1NL4-3. Kind of series: Anti-HIV cytopathicity assay against parental molecular clone. It is filed as cell-based. As for the experimental part: (§1) Cloning and sequencing of virus from the HIVNL4-3 passaged in the presence of 8 μM L-chicoric acid was undertaken to determine the molecular basis for resistance to L-chicoric acid and to isolate a resistant HIV clone.
Assays, as described above, to determine the ED50 for a given compound against the molecular clone HIVNL4-3clone1-D4 and the parental clone HIVNL4-3 give an indication of the selectivity of the compound for inhibition of HIV replication through IN. Resistance to a compound, as measured by an increased ED50, by clone HIVNL4-3clone1-D4, implies selectivity of the compound for IN. Thus clone HIVNL4-3clone1-D4 can be used to screen candidate IN inhibitors for selectivity.

A further series has as its system HIV-1NL4-3clone1-D4. It is filed as cell-based. To be noted: for Fold Change (ED50 resistant clone vs HIVNL4-3): HIVNL4-3clone1-D4 vs HIVNL4-3; for efficacy against the L-chicoric acid resistant clone: compared with parental HIVNL4-3; for EC50: mean of triplicate infections, read-out: ED50 HIVNL4-3clone1-D4. As to the method: as §1
This cloning was accomplished through site-directed mutagenesis introducing several silent mutations immediately upstream and downstream of the integrase gene. These mutations generated two unique restriction sites: an upstream SacII and a downstream XbaI (FIG. 15). Introduction of these mutations allowed the entire integrase gene with only minimal upstream and downstream nucleotides to be digested and “swapped” between drug-resistant and drug-sensitive clones.

In another series the target is HIV-1 IN (Human immunodeficiency virus type 1 group M subtype B, UniProt P12497). The conditions noted are these: read-out: IC50 (IN dependent disintegration); purified HIV IN, MnCl2.
The subject of series [1] is HIVNL4-3 passaged in the presence of 8 μM L-chicoric acid. The series can be described thus: Cytopathicity assay against virus passaged in 8 μM L-chicoric acid. It is filed as cell-based, HIV. The conditions noted are these: FIG. 14. As for the experimental part: HIVNL4-3 plasmid (a gift from Dr. P. Krogstad, UCLA, Los Angeles, Calif.), was transfected in HeLa cells using Lipofectin® (Gibco/BRL). Excess DNA was removed by washing and cells were co-cultured with H9 cells for 18 hours. The H9 cells were removed and re-cultured in growth medium. When the culture was 100% positive for HIV antigens by indirect immunofluorescence, the virus was inoculated onto H9 cells and incubated at 37° C. for several weeks in the presence of 2 μM L-chicoric acid. When this culture was 100% positive the virus was isolated and one aliquot was passaged in a similar manner in 4 μM L-chicoric acid. Finally, virus was cultured in the presence of 8 μM L-chicoric acid and the resultant virus filter-clarified, aliquoted, and stored at −70° C.
as §1

[2] abbreviates: mean of triplicate infections, read-out: ED50 HIVNL4-3.

Where two headings read alike, the source gives them in different places.

Regarding `O=C(O[C@@H](C(=O)O)[C@@H](OC(=O)c1cc(O)c(O)c(O)c1)C(=O)O)c1cc(O)c(O)c(O)c1` [Compound 25], the “LD5 (5% lethal dose, concentration at which cell growth is inhibited by 5%)” value in the series with MT-2 cells was 2.7 µM. The EC50 in the series on HIVLAI was determined as 660 nM. Further, the EC50 in the series on HIV-1NL4-3 (setting [2]) was 290 nM. In the series with HIV-1NL4-3clone1-D4, the “Fold Change (ED50 resistant clone vs HIVNL4-3)” value (“Fold Change” for short) stood at 107, the “efficacy against the L-chicoric acid resistant clone” value (from here on “efficacy”) is on record as “reduced efficacy” and the EC50 stood at 31200 nM.

For the compound `O=C(O[C@@H](C(=O)O)[C@@H](OC(=O)c1ccc(O)c(O)c1)C(=O)O)c1ccc(O)c(O)c1` [Compound 26], the “LD5 (5% lethal dose, concentration at which cell growth is inhibited by 5%)” value in the series on MT-2 cells came to 90 µM. The EC50 with HIVLAI was 950 nM; in the series with HIV-1NL4-3 (setting [2]) it was 820 nM; with HIV-1NL4-3clone1-D4 it was 52500 nM. For the same compound, in the series with HIV-1NL4-3clone1-D4, the “Fold Change” value is listed as 64. In addition, the “efficacy” value in the series with HIV-1NL4-3clone1-D4 is on record as “reduced efficacy”.

In the case of `O=C(Cc1ccc(O)c(O)c1)O[C@@H](C(=O)O)[C@@H](OC(=O)Cc1ccc(O)c(O)c1)C(=O)O` [Compound 28], the “LD5 (5% lethal dose, concentration at which cell growth is inhibited by 5%)” value in the series on MT-2 cells came to 70 µM. For the same compound, the EC50 in the series with HIVLAI came to 35000 nM. Also, the EC50 with HIV-1NL4-3 (setting [2]) is 15600 nM. Moreover, in the series on HIV-1NL4-3clone1-D4, the “Fold Change” value is listed as 4, the “efficacy” value is on record as “reduced efficacy” and the EC50 is 62500 nM.

For the compound “Di-3,4-dihydrodihydroxybenzylidine succinic acid [Compound 38]”, the EC50 in the series with HIVLAI amounted to 4400 nM. In addition, the IC50 at HIV-1 IN is 858 nM.

For the compound Dicaffeoyl-L-tartaric acid [Compound 1], the EC50 with HIV-1NL4-3 (control virus passaged without inhibitor, FIG. 14, read-out: ED50 against HIVNL4-3 control virus) is 400 nM; in the series with HIV-1NL4-3 (setting [2]), 780 nM; in the series with HIV-1NL4-3clone1-D4, 61200 nM. For the same compound, the entries for the “efficacy” value in the series with HIV-1NL4-3clone1-D4 and in the series with HIV-1NL4-3clone1-D4 (listed as L-chicoric acid) were “reduced efficacy” and “resistant”, respectively. Moreover, the “resistance of passaged virus to the compound” value in series [1] is recorded as “completely resistant”.

(Values after patent publication US20050049242A1 (priority 2000, published 2005).)
